Results taken from patent US20230273228A1, “Diagnostic Method and Compounds for the Treatment of Infections Caused by a Pathogen” (priority 2020, published 2023).

Legend:
Assay type in all cases: in vivo, Golden Syrian Hamster
[1] = tested on: SARS-CoV-2; experiment: Body weight variation of hamsters infected with SARS-CoV-2
[2] = tested on: TNF-α; experiment: Cytokine/chemokine profile by qRT-PCR in lung tissues and blood of SARS-CoV-2 infected hamsters
[3] = tested on: SARS-CoV-2; experiment: Viral load determination by quantitative real-time RT-PCR in tissues of infected hamsters

CC/C=C\C/C=C\C[C@H](O)\C=C/C=C/C=C/[C@H](O)C/C=C\CCC(=O)OC [MaR1 ME, Methyl 7R,14S-dihydroxy-4Z,8E,10E,12Z,16Z,19Z-docosahexaenoate]
Improvement in weight loss, dependence on dose ([1]; MaR1 ME 0.05 and 0.5 mg/kg i.p. twice daily): dose dependent
Loss of body weight compared with infected untreated animals ([1]; SARS-CoV-2 infected hamsters, MaR1 ME 0.05 and 0.5 mg/kg i.p., Lipinova 1.20 mg/kg by gavage, twice daily): decreases significantly
Body weight loss ([1]; highest dose of MaR1 ME (0.5 mg/kg i.p. twice daily from day 2 post inoculation), SARS-CoV-2 infected hamsters): less than 5%
Impact on the chemokine and cytokine profile in infected animals [2]: significant impact
Levels of TNF-α in the lungs compared with untreated animals ([2]; lung tissue, 4, 7 and 14 dpi): significantly lower
Impact on viral load in tissues [3]: significant impact
Viral load in the lungs ([3]; after a few days of treatment): significantly reduced
